According to ChEMBL document CHEMBL1201862, “PubChem BioAssay data set” (2004):
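A five-concentration, 48-hour dose response in 96-well plates underlies each endpoint, interpolated linearly between surrounding concentrations. GI50 = concentration required for 50% inhibition of growth.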 The source made the active and inactive calls. Cut-off read from the data, not from the text of the source: active = GI50 up to about 1.1 µM and inactive = higher. Peptide text beside a SMILES is read from it. * marks the point of attachment. Boc = CC(C)(C)OC(=O)*

Columns and labels:
Test in all cases: growth of human tumour cells (NCI), 48 h
[1] = system: 786-0
[2] = system: A549
[3] = system: ACHN
[4] = system: CCRF-CEM
[5] = system: DU-145
[6] = system: EKVX
[7] = system: HCC 2998
[8] = system: HL-60
[9] = system: HT-29
[10] = system: KM12
[11] = system: MDA-N
[12] = system: MOLT-4
[13] = system: Malme-3M
[14] = system: NCI-H226
[15] = system: NCI/ADR-RES
[16] = system: OVCAR-8
[17] = system: RPMI-8226
[18] = system: SF-268
[19] = system: SK-MEL-5
[20] = system: U-251

| SMILES | GI50 [1] | GI50 [2] | GI50 [3] | GI50 [4] | GI50 [5] | GI50 [6] | GI50 [7] | GI50 [8] | GI50 [9] | GI50 [10] | GI50 [11] | GI50 [12] | GI50 [13] | GI50 [14] | GI50 [15] | GI50 [16] | GI50 [17] | GI50 [18] | GI50 [19] | GI50 [20] |
| --- | --- | --- | --- | --- | --- | --- | --- | --- | --- | --- | --- | --- | --- | --- | --- | --- | --- | --- | --- | --- |
| CC(NC(=O)OC(C)(C)C)C(=O)NC(Cc1ccccc1)C(=O)NCC(=O)O (stereo not drawn) (Boc-Ala-Phe-Gly-OH; configuration not given here) | > 100 µM (inactive) | > 100 µM (inactive) | > 100 µM (inactive) | > 100 µM (inactive) | > 100 µM (inactive) | > 100 µM (inactive) | > 100 µM (inactive) | > 100 µM (inactive) | > 100 µM (inactive) | > 100 µM (inactive) | > 100 µM (inactive) | > 100 µM (inactive) | > 100 µM (inactive) | > 100 µM (inactive) | > 100 µM (inactive) | > 100 µM (inactive) | > 100 µM (inactive) | > 100 µM (inactive) | > 100 µM (inactive) | > 100 µM (inactive) |
| CC(C)(C)OC(=O)NCCC1SC2C=CC1C2 (stereo not given) | > 100 µM (inactive) | > 100 µM (inactive) | > 100 µM (inactive) | > 100 µM (inactive) | > 100 µM (inactive) | > 100 µM (inactive) | > 100 µM (inactive) | > 100 µM (inactive) | > 100 µM (inactive) | > 100 µM (inactive) | > 100 µM (inactive) | > 100 µM (inactive) | > 100 µM (inactive) | > 100 µM (inactive) | > 100 µM (inactive) | > 100 µM (inactive) | > 100 µM (inactive) | > 100 µM (inactive) | 83.2 µM (inactive) | > 100 µM (inactive) |
| CCOC(=O)C(NCc1ccc2c(c1)OCO2)(NC(=O)c1ccccc1)C(F)(F)F (stereo not given) | > 100 µM (inactive) | 71 µM (inactive) | > 100 µM (inactive) | 19.5 µM (inactive) | > 100 µM (inactive) | 86.1 µM (inactive) | > 100 µM (inactive) | 16.9 µM (inactive) | > 100 µM (inactive) | 88.1 µM (inactive) | > 100 µM (inactive) | 18 µM (inactive) | > 100 µM (inactive) | > 100 µM (inactive) | 46.2 µM (inactive) | > 100 µM (inactive) | 34.7 µM (inactive) | > 100 µM (inactive) | > 100 µM (inactive) | > 100 µM (inactive) |
| Cc1c2oc3c(C)cnc(C(=O)NC4C(=O)NC(C(C)C)C(=O)N5CCCC5C(=O)N(C)CC(=O)N(C)C(C(C)C)C(=O)OC4C)c3nc-2c(C(=O)NC2C(=O)NC(C(C)C)C(=O)N3CCCC3C(=O)N(C)CC(=O)N(C)C(C(C)C)C(=O)OC2C)c(N)c1=O (stereo not given) | 2.3 µM (inactive) | 3.37 µM (inactive) | 5.48 µM (inactive) | 0.121 µM (active) | 4.72 µM (inactive) | 15.4 µM (inactive) | 2.67 µM (inactive) | 0.769 µM (active) | 1.29 µM (inactive) | 5.94 µM (inactive) | 0.979 µM (active) | 0.138 µM (active) | 1.28 µM (inactive) | 2.65 µM (inactive) | > 61 µM (inactive) | 5.57 µM (inactive) | 0.211 µM (active) | 0.789 µM (active) | 1.04 µM (active) | 0.931 µM (active) |
